Our source for the minimal effective concentration and melting point values is US7199131B2, “Sulfonamide and sulfamide substituted imidazoquinolines” (3M Innovative Properties Company, priority 2001, dated 2007).

Where a name gives a salt, the structure may show the parent alone. Bounds are passed on as bounds.

For one data set, the system named is interferon (α). The data set is described as follows: Cytokine Induction in Human Cells: interferon (α) secreted by PBMCs, ELISA. The class given is cell-based. Particulars: PBMC, incubated 18 to 24 hours, lowest concentration found to induce interferon. An excerpt: (§1) An in vitro human blood cell system was used to assess cytokine induction by compounds of the invention. Activity is based on the measurement of interferon and tumor necrosis factor (α) (IFN and TNF, respectively) secreted into culture media as described by Testerman et. al. In “Cytokine Induction by the Immunomodulators Imiquimod and S-27609”, Journal of Leukocyte Biology, 58, 365–372 (September, 1995).
(§2) Whole blood is collected by venipuncture into EDTA vacutainer tubes from healthy human donors. Peripheral blood mononuclear cells (PBMCs) are separated from whole blood by density gradient centrifugation using Histopaque®-1077 (Sigma Chemicals, St. Louis, Mo.). The PBMCs are suspended at 3–4×10^6 cells/mL in RPMI 1640 medium containing 10% fetal bovine serum, 2 mM L-glutamine and 1% penicillin/streptomycin solution (RPMI complete). The PBMC suspension is added to 48 well flat bottom sterile tissue culture plates (Costar, Cambridge, Mass. or Becton Dickinson Labware, Lincoln Park, N.J.) containing an equal volume of RPMI complete media containing test compound.
(§3) The compounds are solubilized in dimethyl sulfoxide (DMSO). The DMSO concentration should not exceed a final concentration of 1% for addition to the culture wells.
(§4) The solution of test compound is added at 60 μM to the first well containing RPMI complete and serial (three fold or ten fold) dilutions are made. The PBMC suspension is then added to the wells in an equal volume, bringing the test compound concentrations to the desired range. The final concentration of PBMC suspension is 1.5–2×10^6 cells/mL. The plates are covered with sterile plastic lids, mixed gently and then incubated for 18 to 24 hours at 37° C. in a 5% carbon dioxide atmosphere.
(§5) Following incubation the plates are centrifuged for 5–10 minutes at 1000 rpm (˜200×g) at 4° C. The cell culture supernatant is removed with a sterile polypropylene pipette and transferred to sterile polypropylene tubes. Samples are maintained at −30 to −70° C. until analysis. The samples are analyzed for interferon (α) and tumor necrosis factor (α) by ELISA
Interferon (α) concentration is determined by ELISA using a Human Multi-Species kit from PBL Biomedical Laboratories, New Brunswick, N.J.
(§6) The table below lists the lowest concentration found to induce interferon and the lowest concentration found to induce tumor necrosis factor for each compound.

The subject of data set [1] is tumor necrosis factor (α). Kind of data set: Cytokine Induction in Human Cells: tumor necrosis factor (α) secreted by PBMCs, ELISA. The class given is cell-based. The conditions noted are these: PBMC, incubated 18 to 24 hours, lowest concentration found to induce tumor necrosis factor.
Source text: as §1, §2, §3, §4, §5
Tumor necrosis factor (α) (TNF) concentration is determined using ELISA kits available from Genzyme, Cambridge, Mass.; R&D Systems, Minneapolis, Minn.; or Pharmingen, San Diego, Calif.
as §6
Background: ELISA stands for enzyme-linked immunosorbent assay.

As to `CCc1nc2c(N)nc3ccccc3c2n1CCCCNS(=O)(=O)c1ccccc1` [Example 232, N-[4-(4-amino-2-ethyl-1H-imidazo[4,5-c]quinolin-1-yl)butyl]benzenesulfonamide], the melting point (in general, the temperature, or range, at which the solid turns liquid) was in the range of 180.6 to 182 °C. The minimal effective concentration (as a rule, the smallest amount tested that counted as effective) in the data set on interferon (α) came to 0.12 µM. In data set [1], this molecule yielded a minimal effective concentration of 1.11 µM.
In the case of `CCCc1nc2c(N)nc3ccccc3c2n1CCCCNS(=O)(=O)c1ccccc1` [Example 233, N-[4-(4-amino-2-propyl-1H-imidazo[4,5-c]quinolin-1-yl)butyl]benzenesulfonamide], the melting point fell in the range of 158.8 to 160.8 °C. In addition, the minimal effective concentration with interferon (α) turned out to be 0.37 µM. This molecule also gave a minimal effective concentration in data set [1] of 1.11 µM.
As for `CCCCCCc1nc2c(N)nc3ccccc3c2n1CCCCNS(=O)(=O)c1ccccc1` [Example 234, N-[4-(4-amino-2-hexyl-1H-imidazo[4,5-c]quinolin-1-yl)butyl]benzenesulfonamide], the melting point was in the range of 84.8 to 85.4 °C. The minimal effective concentration in the data set on interferon (α) was 1.11 µM. For the same molecule, the minimal effective concentration in data set [1] is 1.11 µM.
Turning to `CCCc1nc2c(N)nc3ccccc3c2n1CCCCNS(C)(=O)=O` [Example 235, N-[4-(4-amino-2-propyl-1H-imidazo[4,5-c]quinolin-1-yl)butyl]methanesulfonamide], the melting point is 186.5 to 187.9 °C. For the same molecule, the minimal effective concentration in the data set on interferon (α) came to 0.04 µM. Also, the minimal effective concentration in data set [1] worked out at 1.11 µM.
The molecule `Cc1nc2c(N)nc3ccccc3c2n1CCCCNS(=O)(=O)c1ccccc1` [Example 237, N-[4-(4-amino-2-methyl-1H-imidazo[4,5-c]quinolin-1-yl)butyl]benzenesulfonamide] showed a melting point of 215.4 to 216 °C. Also, the minimal effective concentration with interferon (α) was determined as 0.37 µM. This molecule also returned a minimal effective concentration in data set [1] of 0.04 µM.
Molecule `Cc1nc2c(N)nc3ccccc3c2n1CCCCNS(C)(=O)=O` [Example 238, N-[4-(4-amino-2-methyl-1H-imidazo[4,5-c]quinolin-1-yl)butyl]methanesulfonanide] gave a melting point of 229.4 to 230.5 °C. The minimal effective concentration with interferon (α) came out at 0.04 µM. The molecule further came in with a minimal effective concentration in data set [1] of 0.37 µM.
Turning to `CCCCc1nc2c(N)nc3ccccc3c2n1CCCNS(C)(=O)=O` [Example 239, N-[3-(4-amino-2-butyl-1H-imidazo[4,5-c]quinolin-1-yl)propyl]methanesulfonamide], the melting point fell in the range of 239.2 to 240.8 °C. In addition, the minimal effective concentration in the data set on interferon (α) stood at 0.01 µM. This molecule also showed a minimal effective concentration in data set [1] of 1.11 µM.
As to `CCCCc1nc2c(N)nc3ccccc3c2n1CCCNS(=O)(=O)c1ccccc1` [Example 240, N-[3-(4-amino-2-butyl-1H-imidazo[4,5-c]quinolin-1-yl)propyl]benzenesulfonamide], the melting point was in the range of 210.5 to 212 °C. Also, in the data set on interferon (α), the minimal effective concentration stood at 0.37 µM. The same molecule returned a minimal effective concentration in data set [1] of 3.33 µM.
As for `CCCCCCc1nc2c(N)nc3ccccc3c2n1CCCCNS(C)(=O)=O` [Example 241, N-[4-(4-amino-2-hexyl-1H-imidazo[4,5-c]quinolin-1-yl)butyl]methanesulfonamide], the melting point was 170.2 to 171.1 °C. The molecule further yielded a minimal effective concentration in the data set with interferon (α) of 0.12 µM. The molecule further yielded a minimal effective concentration in data set [1] of 1.11 µM.
`COCCc1nc2c(N)nc3ccccc3c2n1CCCCCCCCNS(=O)(=O)c1ccccc1` [Example 242, N-{8-[4-amino-2-(2-methoxyethyl)-1H-imidazo[4,5-c]quinolin-1-yl]octyl}benzenesulfonamide] registered a melting point of 146 to 149 °C. Further, in the data set with interferon (α), the minimal effective concentration was 0.01 µM. Also, the minimal effective concentration in data set [1] was 0.01 µM.
Regarding `COCCc1nc2c(N)nc3ccccc3c2n1CCCCCCCCNS(C)(=O)=O` [Example 243, N-{8-[4-amino-2-(2-methoxyethyl)-1H-imidazo[4,5-c]quinolin-1-yl]octyl}methanesulfonamide], the melting point lay in the range of 109 to 110 °C. The same molecule came in with a minimal effective concentration with interferon (α) of 0.01 µM. In data set [1], this molecule displayed a minimal effective concentration of 0.01 µM.
For `CCCCc1nc2c(N)nc3ccccc3c2n1CCCCCCCCNS(C)(=O)=O` [Example 244, N-[8-(4-amino-2-butyl-1H-imidazo[4,5-c]quinolin-1-yl)octyl]methanesulfonamide], the melting point lay within 121 to 124 °C. Besides, the minimal effective concentration with interferon (α) amounted to 0.01 µM. This molecule gave a minimal effective concentration in data set [1] of 0.01 µM.
In turn, `CCCCc1nc2c(N)nc3ccccc3c2n1CCCNS(=O)(=O)c1cccc2c(N(C)C)cccc12` [Example 245, N-[3-(4-amino-2-butyl-1H-imidazo[4,5-c]quinolin-1-yl)propyl]-5-(dimethylamino)naphthalene-1-sulfonamide] displayed a melting point of 216.5 to 217.5 °C. The minimal effective concentration in the data set with interferon (α) amounted to 3.33 µM. This molecule also gave a minimal effective concentration in data set [1] of more than 30 µM.
Turning to `CCCCc1nc2c(N)nc3ccccc3c2n1CCCNS(=O)(=O)c1ccc(C)cc1` [Example 246, N-[3-(4-amino-2-butyl-1H-imidazo[4,5-c]quinolin-1-yl)propyl]-4-methylbenzenesulfonamide], the melting point was 197 to 198.5 °C. This molecule came in with a minimal effective concentration with interferon (α) of 1.11 µM. Also, the minimal effective concentration in data set [1] was found to be 3.33 µM.
Take `COCCc1nc2c(N)nc3ccccc3c2n1CCCNS(C)(=O)=O` [Example 247, N-{3-[4-amino-2-(2-methoxyethyl)-1H-imidazo[4,5-c]quinolin-1-yl]propyl}methanesulfonamide]: the melting point was 193 to 194 °C. In addition, in the data set on interferon (α), the minimal effective concentration amounted to 0.01 µM. This molecule also displayed a minimal effective concentration in data set [1] of 0.01 µM.
Consider `CCCCc1nc2c(N)nc3ccccc3c2n1CCCCCCCCNS(=O)(=O)c1ccccc1` [Example 248, N-[8-(4-amino-2-butyl-1H-imidazo[4,5-c]quinolin-1-yl)octyl]benzenesulfonamide], for which the melting point was 143 to 144 °C. The molecule also registered a minimal effective concentration in the data set with interferon (α) of 0.12 µM. The molecule also displayed a minimal effective concentration in data set [1] of 0.01 µM.
`COCCc1nc2c(N)nc3ccccc3c2n1CCCNS(=O)(=O)c1ccccc1` [Example 249, N-(3-[4-amino-2-(2-methoxyethyl)-1H-imidazo[4,5-c]quinolin-1-yl]propyl)benzenesulfonamide] showed a melting point of 149 to 151 °C. Further, in the data set with interferon (α), the minimal effective concentration was 0.01 µM. This molecule also displayed a minimal effective concentration in data set [1] of 1.11 µM.
For `CCCCCc1nc2c(N)nc3ccccc3c2n1CCCCNS(C)(=O)=O` [Example 250, N-[4-(4-amino-2-pentyl-1H-imidazo[4,5-c]quinolin-1-yl)butyl]methanesulfonamide], the figures for the minimal effective concentration (in the data set on interferon (α); in data set [1]) were 0.01 µM and 0.12 µM, respectively.
As to `CCCCCc1nc2c(N)nc3ccccc3c2n1CCCCNS(=O)(=O)c1ccccc1` [Example 251, N-[4-(4-amino-2-pentyl-1H-imidazo[4,5-c]quinolin-1-yl)butyl]benzenesulfonamide], the minimal effective concentration in the data set on interferon (α) was determined as 0.12 µM; in data set [1], 10 µM.
Take `CS(=O)(=O)NCCCCCCCCn1cnc2c(N)nc3ccccc3c21` [Example 252, N-[8-(4-amino-1H-imidazo[4,5-c]quinolin-1-yl)octyl]methanesulfonamide]: the melting point lay within 153 to 155 °C. For the same molecule, the minimal effective concentration with interferon (α) amounted to 0.37 µM. In data set [1], this molecule came in with a minimal effective concentration of 1.11 µM.
In the case of `COCCc1nc2c(N)nc3ccccc3c2n1CCCNS(=O)(=O)c1ccc(C)cc1` [Example 253, N-{3-[4-amino-2-(2-methoxyethyl)-1H-imidazo[4,5-c]quinolin-1-yl]propyl}-4-methylbenzenesulfonamide], the melting point was 189 to 191 °C. Moreover, the minimal effective concentration in the data set on interferon (α) was 0.04 µM. This molecule also returned a minimal effective concentration in data set [1] of 0.12 µM.
In turn, `CCCCCc1nc2c(N)nc3c(c2n1CCCCNS(C)(=O)=O)CCCC3` [Example 254, N-[4-(4-amino-2-pentyl-6,7,8,9-tetrahydro-1H-imidazo[4,5-c]quinolin-1-yl)butyl]methanesulfonamide] yielded a melting point of 167 to 167.8 °C. Besides, the minimal effective concentration in the data set on interferon (α) stood at 0.01 µM. The molecule further yielded a minimal effective concentration in data set [1] of 1.11 µM.
As to `Cc1nc2c(N)nc3c(c2n1CCCCNS(C)(=O)=O)CCCC3` [Example 263, N-[4-(4-amino-2-methyl-6,7,8,9-tetrahydro-1H-imidazo[4,5-c]quinolin-1-yl)butyl]methanesulfonamide hydrochloride], the minimal effective concentration in the data set on interferon (α) is 0.12 µM; in data set [1], more than 30 µM.
